Consider 19 molecules from patent US8188301B2, “Disubstituted phenylpyrrolidines as modulators of cortical catecholaminergic neurotransmission” (NSAB, Filial af NeuroSearch Sweden AB, Sverige, priority 2007, dated 2012).

The subject of data set [1] is DOPAC levels (3,4-dihydroxyphenylacetic acid) in the rat striatum. Kind of data set: Tissue content of DOPAC in rat striatum after systemic administration of test compound (in vivo neurochemistry). The settings on record: for change in vivo at 100 µmol/kg: sc, 1 h. As for the experimental part: The measurement of the tissue content of DOPAC is well established in the field of research since the 1960's. In short, male Sprague-Dawely rats are administered the test compound 60 minutes prior to decapitation. The brain is rapidly taken out and dissected. The striatum is rapidly frozen and subsequently quantitatively analysed with respect to its content of DOPAC by means of HPLC and electrochemical detection. The number of animals used for each test compound/vehicle is 4/group.
Male Sprague-Dawley rats weighing 220-320 g are used throughout the experiments. Sixty (60) minutes following administration of the test substance, the rats are decapitated. Directly after decapitation the brain is removed from the skull and put on a glass petri bowl filled with ice. The limbic system (containing the nucleus accumbens—both the core and shell, most parts of the olfactory tubercle and ventral pallidum) is dissected using two thin, angled tweezers and put directly on foil on dry ice (carbon dioxide −78° C.). The striatum and cortex are then dissected and also put on dry ice. The time from decapitation until the last tissue is dissected varies from four to six minutes. The tissue is weighed using a Sartorius BP3105 connected to a computer and packed in labelled tin foil, then stored in an −80° C. freezer. Great care is taken in order to keep the tissue frozen until the time of neurochemical analysis. Each brain part is subsequently analyzed with respect to its content of monoamines and their metabolites.
The monoamine transmitter substances (NE (norepinephrine), DA (dopamine), 5-HT (serotonin)) as well as their amine (NM (normethanephrine), 3-MT (3-methoxy-tyramine)) and acid (DOPAC (3,4-dihydroxyphenylacetic acid), 5-HIAA (5-hydroxyindoleacetic acid), HVA (homovanillic acid)) metabolites are quantified in brain tissue homogenates by HPLC separations and electrochemical detection.
The analytical method is based on two chromatographic separations dedicated for amines or acids. Two chromatographic systems share a common auto injector with a 10-port valve and two sample loops for simultaneous injection on the two systems. Both systems are equipped with a reverse phase column (Luna C18(2), dp 3 μm, 50*2 mm i.d., Phenomenex) and electrochemical detection is accomplished at two potentials on glassy carbon electrodes (MF-1000, Bioanalytical Systems, Inc.). The column effluent is passed via a T-connection to the detection cell or to a waste outlet. This is accomplished by two solenoid valves, which block either the waste or detector outlet. By preventing the chromatographic front from reaching the detector, better detection conditions are achieved. The aqueous mobile phase (0.4 mL/min) for the acid system contains citric acid 14 mM, sodium citrate 10 mM, MeOH 15% (v/v) and EDTA 0.1 mM. Detection potentials relative to Ag/AgCl reference are 0.45 and 0.60V. The aqueous ion pairing mobile phase (0.5 mL/min) for the amine system contains citric acid 5 mM, sodium citrate 10 mM, MeOH 9% (v/v), MeCN 10.5% (v/v), decane sulfonic acid 0.45 mM, and EDTA 0.1 mM. Detection potentials relative to Ag/AgCl reference are 0.45 and 0.65V.

Data set [2] has the same test system. The settings on record: 100 μmol/kg s.c., %-increase from control value, data taken from Table 2 in Ref 1 (J. Med. Chem. 1994, 37, 2735); cited from earlier work.
Data set [3] has as its system extracellular levels of dopamine, norepinephrine and serotonin in p.f. cortex and striatum. In words: In vivo microdialysis in awake and freely moving rats. Also noted: species or system rat. The settings on record: 10 mg/kg s.c., FIG. 21.
[4] abbreviates: rat striatum, 100 μmol/kg s.c., %-increase from control value, 60 minutes after administration.
The mark [5] stands for this setting: Rattus norvegicus, read-out: DOPAC %-increase, rat striatum, 100 μmol/kg s.c., %-increase from control value, 60 minutes after administration.

Molecules are shown by their SMILES. Structures can show the parent of a compound that is named as a salt. Where two headings read alike, the source gives them in different places.

With `CCN1CCC(O)(c2cc(F)cc(F)c2)C1` (single isomer, unassigned; (+)) [Example 2, (+)-3-(3,5-DIFLUOROPHENYL)-1-ETHYLPYRROLIDIN-3-OL], the DOPAC %-increase in data set [1] (setting [4]) is −16%.
For `CCN1CCC(O)(c2cccc(F)c2F)C1` (single isomer, unassigned; (+)) [Example 36, (+)-3-(2,3-DIFLUOROPHENYL)-1-ETHYLPYRROLIDIN-3-OL], the DOPAC %-increase in data set [1] (setting [4]) is listed as −15%.
Usually melting point stands for the temperature of the solid-liquid transition. Molecule `COCCN1CCC(O)(c2cccc(F)c2F)C1` (single isomer, unassigned; (-)) (as salt: oxalic acid salt) [Example 42, (−)-3-(2,3-DIFLUOROPHENYL)-1-(2-METHOXYETHYL)PYRROLIDIN-3-OL] displayed a melting point of 146.7 °C.
`COCCN1CCC(O)(c2cc(F)cc(F)c2)C1` (single isomer, unassigned; (-)) (as salt: oxalic acid salt) [Example 45, (−)-3-(3,5-DIFLUOROPHENYL)-1-(2-METHOXYETHYL)PYRROLIDIN-3-OL] returned a melting point of 130 to 131 °C.
On the same count and under the same terms, as for `OC1(c2cccc(F)c2F)CCN(CCC(F)(F)F)C1` (single isomer, unassigned; (-)) (as salt: oxalic acid salt) [Example 48, (−)-3-(2,3-DIFLUOROPHENYL)-1-(3,3,3-TRIFLUOROPROPYL)PYRROLIDIN-3-OL], the figure is 144 °C.
`CCN1CCC(O)(c2cc(F)cc(F)c2)C1` (single isomer, unassigned; (-)) [Example 1, (−)-3-(3,5-DIFLUOROPHENYL)-1-ETHYLPYRROLIDIN-3-OL]: in data set [1] (setting [4]), the DOPAC %-increase worked out at 0%.
Consider `CCN1CCC(O)(c2cccc(F)c2F)C1` (single isomer, unassigned; (-)) [Example 32, (−)-3-(2,3-DIFLUOROPHENYL)-1-ETHYLPYRROLIDIN-3-OL], for which, in data set [1] (setting [4]), the DOPAC %-increase entry is “+8%”.
`CCN1CCC(O)(c2ccc(F)c(Cl)c2)C1` (centres unmarked) [Example 3, 3-(3-CHLORO-4-FLUOROPHENYL)-1-ETHYLPYRROLIDIN-3-OL]: the change in vivo at 100 µmol/kg in data set [1] (setting [5]) is -28%.
For `CCN1CCC(O)(c2cccc(F)c2F)C1` (centres unmarked) [Example 4, 3-(2,3-DIFLUOROPHENYL)-1-ETHYLPYRROLIDIN-3-OL], the DOPAC %-increase in data set [1] (setting [4]) was −10%.
With `CCN1CCC(O)(c2cc(F)cc(Cl)c2)C1` (centres unmarked) [Example 5, 3-(3-CHLORO-5-FLUOROPHENYL)-1-ETHYLPYRROLIDIN-3-OL], the change in vivo at 100 µmol/kg in data set [1] (setting [5]) is -26%.
For `CCN1CCC(O)(c2cc(Cl)cc(Cl)c2)C1` (centres unmarked) [Example 6, 3-(3,5-DICHLOROPHENYL)-1-ETHYLPYRROLIDIN-3-OL], the change in vivo at 100 µmol/kg in data set [1] (setting [5]) was -10%.
Take `CCCN1CCC(O)(c2ccc(F)c(F)c2)C1` (centres unmarked) [Example 7, 3-(3,4-DIFLUOROPHENYL)-1-PROPYLPYRROLIDIN-3-OL]: in data set [1] (setting [5]), the change in vivo at 100 µmol/kg stood at 0%.
With `CCN1CCC(O)(c2cc(F)cc(F)c2)C1` (centres unmarked) [Example 8, 3-(3,5-DIFLUOROPHENYL)-1-ETHYLPYRROLIDIN-3-OL], the DOPAC %-increase in data set [1] (setting [4]) was −24%.
As to `CCCN1CCC(O)(c2cc(F)cc(F)c2)C1` (centres unmarked) [Example 9, 3-(3,5-DIFLUOROPHENYL)-1-PROPYLPYRROLIDIN-3-OL], the change in vivo at 100 µmol/kg in data set [1] (setting [5]) is -5%.
Still for that read-out and setting: as for `CCN1CCC(O)(c2ccc(Cl)c(Cl)c2)C1` (centres unmarked) [Example 10, 3-(3,4-DICHLOROPHENYL)-1-ETHYLPYRROLIDIN-3-OL], the figure is -26%.
Take `CN1CCC(F)(c2cc(F)cc(F)c2)C1` (centres unmarked) [Example 11, 3-(3,5-DIFLUOROPHENYL)-3-FLUORO-1-METHYLPYRROLIDINE]: the change in vivo at 100 µmol/kg in data set [1] (rat striatum, 100 μmol/kg s.c., %-increase from control value, 60 minutes after administration, read-out: DOPAC %-increase) was -4%.
For `CCN1CCC(O)(c2ccc(F)c(F)c2)C1` (centres unmarked) [Example 12, 3-(3,4-DIFLUOROPHENYL)-1-ETHYLPYRROLIDIN-3-OL], in data set [1] (setting [5]), the change in vivo at 100 µmol/kg is -19%.
As for `CCCN1CCC[C@@H](c2cccc(S(C)(=O)=O)c2)C1` [Example 16 of ref. 1], the DOPAC %-increase result in data set [2] is listed as “+150^2%”.
Turning to `CN1CCN2c3ncccc3Cc3ccccc3C2C1` (centres unmarked) [mirtazapine], in data set [3], the “cortical NE levels” value is “marked increases in cortical NE levels”; the “extracellular norepinephrine and dopamine in the cortex” value is “increase predominantly extracellullar norepinephrine and dopamine in the cortex”.
